Data: patent US20200138824A1, “TREATMENT OF CANCER WITH A PI3K INHIBITOR IN A PATIENT PRESELECTED FOR HAVING A PIK3CA MUTATION IN THE CTDNA” (Novartis AG, priority 2015, published 2020)

System: HR+, HER2-negative locally advanced or metastatic breast cancer
Assay: Study CBKM120F2302, randomized double-blind placebo-controlled Phase-III trial: buparlisib plus fulvestrant vs. placebo plus fulvestrant
Assay type: in vivo, human
Conditions: Full population
From the text: For the Study, patients were selected according to the following inclusions and exclusion criteria:
Inclusion Criteria: • Locally advanced or metastatic breast cancer • HER2-negative and hormone receptor-positive status (common breast cancer classification tests) • Postmenopausal woman • A tumor sample must be shipped to a Novartis designated laboratory for identification of biomarkers (PI3K activation status) • Progression or recurrence of breast cancer while on or after aromatase inhibitor treatment • Measurable disease or non measurable disease bone lesions in the absence of measurable disease as per Response Evaluation Criteria in Solid Tumors 1.1 • Adequate bone marrow and organ function defined by laboratory values
Approximately 1200 patients were to be randomized in a 1:1 ratio. Enrollment was to continue until a minimum of 842 patients were randomized in the main cohort, including ≥334 patients with activated PI3K pathway status. […]
The PI3K pathway activation status was defined based on analysis of archival tumor samples as: • A mutation in the PIK3CA gene in one or more of exons 1, 7, 9, or 20 as assessed by Sanger sequencing, and/or • Loss of phosphotensin homolog (PTEN) expression (<10% of tumor cells expressing PTEN at 1+ level by immunohistochemistry [IHC] and no tumor cells staining with an intensity >1+) […]

## Nc1cc(C(F)(F)F)c(-c2cc(N3CCOCC3)nc(N3CCOCC3)n2)cn1 [buparlisib, 5-(2,6-di-morpholin-4-yl-pyrimidin-4-yl)-4-trifluoromethyl-pyridin-2-ylamine]
  Overall safety and tolerability profile: consistent with prior experience in single-arm and combination studies and with the class effects of PI3K inhibitors
